# In patent US6623914B2, “Method for preparing an acid salt of p-phenylenediamine-type photographic color developers” (Eastman Chemical Company, priority 2001, dated 2003):
# Assay: Solubility (saturation concentration) of color developer free base in solvents at ambient temperature
# Details: ambient temperatures; liquid free base; stated, saturation concentration not evaluated
# Protocol: To define the free base solution product compositions, the solubility of the free base form of color developers N-ethyl-N-(2-methanesulfonylaminoethyl)-2-methyl-p-phenylenediamine and N-ethyl-N-(2-hydroxyethyl)-2-methyl-p-phenylenediamine was determined in a number of potential solvents at ambient temperature, nominally 24° C.
# A small quantity, about 3 weight % relative to the weight of the solvent, of N,N-diethylhydroxylamine (DEHA) was added as a preservative to each determination. Excess color developer free base identified above was added to each solvent and saturation was achieved by mixing for several hours at room temperature.
smiles,measurement,value
"CCN(CC)c1ccc(N)cc1C [N,N-diethyl-2-methyl-p-phenylenediamine]","Miscibility with the water-soluble, water-miscible, hydroxy-containing solvent candidates",fully miscible
